How the values were obtained:
Format in all cases: biochemical
[1] = biological target: T1, c-KIT (Homo sapiens, UniProt P10721); assay: AlphaScreen kinase assay with recombinant enzyme, c-KIT; conditions: 100ATP, 8pt, GMean
T1 construct: purchased Millipore 14-559K
Method in brief: (§1)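 Tyrosine phosphorylation of biotin-poly(Glu4-Tyr) substrate by recombinant enzyme is detected with PY20 acceptor and streptavidin donor beads after room-temperature incubations of 20 and 60 min. IC50 values were derived at a final 10 μM (FLT3-D835Y, FLT3-ITD) or 100 μM (c-KIT).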

[2] = biological target: T2, FLT3-D835Y (Homo sapiens, UniProt P36888, D835Y); assay: AlphaScreen kinase assay with recombinant enzyme, FLT3-D835Y; conditions: 8pt, GMean
T2 construct: purchased Invitrogen PV3967
T2 sequence (P36888 27-993 D835Y): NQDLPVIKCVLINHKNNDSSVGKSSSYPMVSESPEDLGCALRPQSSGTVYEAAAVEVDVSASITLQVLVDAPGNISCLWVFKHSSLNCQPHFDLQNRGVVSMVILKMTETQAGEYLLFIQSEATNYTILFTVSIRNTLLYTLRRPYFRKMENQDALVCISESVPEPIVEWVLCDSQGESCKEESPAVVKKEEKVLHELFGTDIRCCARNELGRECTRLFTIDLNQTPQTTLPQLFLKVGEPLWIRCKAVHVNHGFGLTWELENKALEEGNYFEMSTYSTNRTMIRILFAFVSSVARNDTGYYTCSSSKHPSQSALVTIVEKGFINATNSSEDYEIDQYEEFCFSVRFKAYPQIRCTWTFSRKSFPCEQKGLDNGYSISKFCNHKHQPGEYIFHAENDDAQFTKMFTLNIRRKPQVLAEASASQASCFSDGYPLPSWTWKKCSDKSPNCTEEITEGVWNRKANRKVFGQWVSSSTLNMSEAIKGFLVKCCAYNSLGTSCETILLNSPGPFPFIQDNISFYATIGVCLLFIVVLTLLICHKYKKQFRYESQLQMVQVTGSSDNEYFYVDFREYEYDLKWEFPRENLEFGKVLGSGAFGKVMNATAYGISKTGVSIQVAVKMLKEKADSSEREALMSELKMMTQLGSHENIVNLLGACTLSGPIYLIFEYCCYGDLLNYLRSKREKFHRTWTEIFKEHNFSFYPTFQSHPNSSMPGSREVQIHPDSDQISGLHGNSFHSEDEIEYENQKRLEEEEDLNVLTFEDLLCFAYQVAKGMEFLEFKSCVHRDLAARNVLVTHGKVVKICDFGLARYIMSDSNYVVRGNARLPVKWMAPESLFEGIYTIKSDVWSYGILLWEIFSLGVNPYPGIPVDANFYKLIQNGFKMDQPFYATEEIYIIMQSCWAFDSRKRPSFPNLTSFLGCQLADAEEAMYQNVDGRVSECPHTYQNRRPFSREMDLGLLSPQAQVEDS
Method in brief: as §1

[3] = biological target: T3, FLT3-ITD (Homo sapiens, UniProt P36888); assay: AlphaScreen kinase assay with recombinant enzyme, FLT3-ITD; conditions: 8pt; read-out: FLT3_ITD 8pt: IC50
T3 sequence (P36888 1-993): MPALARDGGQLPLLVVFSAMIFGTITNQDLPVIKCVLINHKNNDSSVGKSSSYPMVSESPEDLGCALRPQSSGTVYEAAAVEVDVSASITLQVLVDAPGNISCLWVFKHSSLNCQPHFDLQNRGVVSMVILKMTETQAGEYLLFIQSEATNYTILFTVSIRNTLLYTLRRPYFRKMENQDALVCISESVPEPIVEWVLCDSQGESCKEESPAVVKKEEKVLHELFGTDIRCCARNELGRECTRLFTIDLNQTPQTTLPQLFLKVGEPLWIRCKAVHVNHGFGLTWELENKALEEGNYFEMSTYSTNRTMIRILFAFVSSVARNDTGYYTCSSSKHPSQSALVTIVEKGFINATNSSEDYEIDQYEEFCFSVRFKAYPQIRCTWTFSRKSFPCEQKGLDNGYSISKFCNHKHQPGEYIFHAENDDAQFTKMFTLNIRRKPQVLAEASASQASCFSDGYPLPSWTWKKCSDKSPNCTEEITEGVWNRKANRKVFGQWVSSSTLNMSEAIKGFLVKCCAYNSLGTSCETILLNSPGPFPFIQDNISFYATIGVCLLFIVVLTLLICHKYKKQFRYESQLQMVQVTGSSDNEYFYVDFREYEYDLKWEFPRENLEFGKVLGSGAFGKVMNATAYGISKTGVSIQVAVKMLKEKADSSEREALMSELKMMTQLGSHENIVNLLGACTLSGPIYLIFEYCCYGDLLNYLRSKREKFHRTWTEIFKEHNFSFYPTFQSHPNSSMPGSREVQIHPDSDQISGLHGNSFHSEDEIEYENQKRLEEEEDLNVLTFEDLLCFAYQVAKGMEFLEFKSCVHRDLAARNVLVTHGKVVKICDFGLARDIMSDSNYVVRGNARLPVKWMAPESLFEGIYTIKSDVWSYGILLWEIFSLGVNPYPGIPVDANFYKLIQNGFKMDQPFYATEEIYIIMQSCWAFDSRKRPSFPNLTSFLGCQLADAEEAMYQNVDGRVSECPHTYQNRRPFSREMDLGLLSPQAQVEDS
Method in brief: as §1

T1 sequence (P10721 26-976): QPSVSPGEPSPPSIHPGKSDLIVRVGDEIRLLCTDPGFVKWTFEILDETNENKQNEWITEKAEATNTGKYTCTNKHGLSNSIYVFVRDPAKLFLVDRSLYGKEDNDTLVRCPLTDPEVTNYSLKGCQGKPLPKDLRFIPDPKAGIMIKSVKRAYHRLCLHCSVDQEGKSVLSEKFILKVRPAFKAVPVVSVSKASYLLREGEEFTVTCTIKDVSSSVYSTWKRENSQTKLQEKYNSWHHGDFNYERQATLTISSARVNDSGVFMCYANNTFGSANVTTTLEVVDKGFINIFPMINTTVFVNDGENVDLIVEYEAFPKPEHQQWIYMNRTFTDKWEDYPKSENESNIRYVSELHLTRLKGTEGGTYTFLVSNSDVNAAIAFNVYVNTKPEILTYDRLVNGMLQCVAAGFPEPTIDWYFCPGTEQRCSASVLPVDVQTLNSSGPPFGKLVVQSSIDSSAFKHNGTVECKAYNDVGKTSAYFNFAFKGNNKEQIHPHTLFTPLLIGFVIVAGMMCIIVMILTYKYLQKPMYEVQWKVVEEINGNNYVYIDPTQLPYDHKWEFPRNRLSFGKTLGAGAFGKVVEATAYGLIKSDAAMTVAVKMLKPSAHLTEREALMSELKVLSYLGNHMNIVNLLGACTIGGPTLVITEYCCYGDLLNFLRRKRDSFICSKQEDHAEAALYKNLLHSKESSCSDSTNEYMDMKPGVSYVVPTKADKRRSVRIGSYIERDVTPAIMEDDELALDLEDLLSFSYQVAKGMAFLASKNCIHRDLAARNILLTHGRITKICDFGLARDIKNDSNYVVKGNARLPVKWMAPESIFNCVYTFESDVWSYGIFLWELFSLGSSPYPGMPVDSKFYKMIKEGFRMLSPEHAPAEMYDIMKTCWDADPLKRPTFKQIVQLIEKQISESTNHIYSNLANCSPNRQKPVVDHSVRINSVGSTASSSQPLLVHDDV

## N[C@H]1CCN(C(=O)c2ncc(-c3cnc4[nH]c(-c5ccccc5)cc4c3)s2)C1 [Compound P-0054, [(3S)-3-aminopyrrolidin-1-yl]-[5-(2-phenyl-1H-pyrrolo[2,3-b]pyridin-5-yl)thiazol-2-yl]methanone]
[1]
  IC50: 0.0001 to 10 µM
[2]
  IC50: 0.0001 to 10 µM
[3]
  IC50: 0.0001 to 10 µM

## CC(=O)NC1CCN(C(=O)c2cccc(-c3cnc4[nH]c(-c5ccccc5)cc4c3)n2)CC1 [Compound P-0020, N-[1-[6-(2-phenyl-1H-pyrrolo[2,3-b]pyridin-5-yl)pyridine-2-carbonyl]-4-piperidyl]acetamide]
[1]
  IC50: 0.0001 to 10 µM
[2]
  IC50: 0.0001 to 10 µM
[3]
  IC50: 0.0001 to 10 µM

## CN[C@@H]1CCN(C(=O)c2cccc(-c3cnc4[nH]c(-c5ccccc5)cc4c3)n2)C1 [Compound P-0058, [(3R)-3-(methylamino)pyrrolidin-1-yl]-[6-(2-phenyl-1H-pyrrolo[2,3-b]pyridin-5-yl)-2-pyridyl]methanone]
[1]
  IC50: 0.0001 to 10 µM
[2]
  IC50: 0.0001 to 10 µM
[3]
  IC50: 0.0001 to 10 µM

## CNC1CCN(C(=O)c2cccc(-c3cnc4[nH]c(C5=CCC(C)(C)CC5)cc4c3)n2)C1 (stereo not drawn) [Compound P-0070, [6-[2-(4,4-dimethylcyclohexen-1-yl)-1H-pyrrolo[2,3-b]pyridin-5-yl]-2-pyridyl]-[3-(methylamino)pyrrolidin-1-yl]methanone]
[1]
  IC50: 0.0001 to 10 µM
[2]
  IC50: 0.0001 to 10 µM
[3]
  IC50: 0.0001 to 10 µM

## O=C(c1cccc(-c2cnc3[nH]c(-c4ccccc4)cc3c2)n1)N1CCC(C(F)(F)F)C1 (stereo not drawn) [Compound P-0103, [6-(2-phenyl-1H-pyrrolo[2,3-b]pyridin-5-yl)-2-pyridyl]-[3-(trifluoromethyl)pyrrolidin-1-yl]methanone]
[1]
  IC50: 50 to 100 µM
[2]
  IC50: 0.0001 to 10 µM
[3]
  IC50: 0.0001 to 10 µM

## c1ccc(-c2cc3cc(-c4cccc(OC5CCNCC5)n4)cnc3[nH]2)cc1 [Compound P-0050, 2-phenyl-5-[6-(4-piperidyloxy)-2-pyridyl]-1H-pyrrolo[2,3-b]pyridine]
[1]
  IC50: 0.0001 to 10 µM
[2]
  IC50: 0.0001 to 10 µM
[3]
  IC50: 0.0001 to 10 µM

## COC1CN(C(=O)c2cccc(-c3cnc4[nH]c(-c5ccccc5)cc4c3)n2)C1 [Compound P-0091, (3-methoxyazetidin-1-yl)-[6-(2-phenyl-1H-pyrrolo[2,3-b]pyridin-5-yl)-2-pyridyl]methanone]
[1]
  IC50: 50 to 100 µM
[2]
  IC50: 0.0001 to 10 µM
[3]
  IC50: 0.0001 to 10 µM

## N[C@H]1CCN(C(=O)c2cccc(-c3cnc4[nH]c(-c5ccccc5)cc4c3)n2)C1 [Compound P-0015, [(3S)-3-aminopyrrolidin-1-yl]-[6-(2-phenyl-1H-pyrrolo[2,3-b]pyridin-5-yl)-2-pyridyl]methanone]
[1]
  IC50: 0.0001 to 10 µM
[2]
  IC50: 0.0001 to 10 µM
[3]
  IC50: 0.0001 to 10 µM

## NC1CCN(C(=O)c2cccc(-c3cnc4[nH]c(-c5ccccc5)cc4c3)n2)CC1 [Compound P-0013, (4-amino-1-piperidyl)-[6-(2-phenyl-1H-pyrrolo[2,3-b]pyridin-5-yl)-2-pyridyl]methanone]
[1]
  IC50: 0.0001 to 10 µM
[2]
  IC50: 0.0001 to 10 µM
[3]
  IC50: 0.0001 to 10 µM

## O=S(=O)(NC1CCNCC1)c1cccc(-c2cnc3[nH]c(-c4ccccc4)cc3c2)n1 [Compound P-0086, 6-(2-phenyl-1H-pyrrolo[2,3-b]pyridin-5-yl)-N-(4-piperidyl)pyridine-2-sulfonamide]
[1]
  IC50: 0.0001 to 10 µM
[2]
  IC50: 0.0001 to 10 µM
[3]
  IC50: 0.0001 to 10 µM

## CC1(C#N)CCN(C(=O)c2cccc(-c3cnc4[nH]c(-c5ccccc5)cc4c3)n2)CC1 [Compound P-0094, 4-methyl-1-[6-(2-phenyl-1H-pyrrolo[2,3-b]pyridin-5-yl)pyridine-2-carbonyl]piperidine-4-carbonitrile]
[1]
  IC50: 50 to 100 µM
[2]
  IC50: 0.0001 to 10 µM
[3]
  IC50: 0.0001 to 10 µM

## CCOC(=O)C1CCN(C(=O)c2cccc(-c3cnc4[nH]c(-c5ccccc5)cc4c3)n2)CC1 [Compound P-0025, ethyl 1-[6-(2-phenyl-1H-pyrrolo[2,3-b]pyridin-5-yl)pyridine-2-carbonyl]piperidine-4-carboxylate]
[1]
  IC50: 0.0001 to 10 µM
[2]
  IC50: 0.0001 to 10 µM
[3]
  IC50: 0.0001 to 10 µM

## N#CC1CCN(C(=O)c2cccc(-c3cnc4[nH]c(-c5ccc(F)cc5)cc4c3)n2)C1 (stereo not drawn) [Compound P-0116, 1-[6-[2-(4-fluorophenyl)-1H-pyrrolo[2,3-b]pyridin-5-yl]pyridine-2-carbonyl]pyrrolidine-3-carbonitrile]
[1]
  IC50: 0.0001 to 10 µM
[2]
  IC50: 0.0001 to 10 µM
[3]
  IC50: 0.0001 to 10 µM

## CN1CCC(NC(=O)c2cccc(-c3cnc4[nH]c(-c5ccccc5)cc4c3)n2)C1 (stereo not drawn) [Compound P-0064, N-(1-methylpyrrolidin-3-yl)-6-(2-phenyl-1H-pyrrolo[2,3-b]pyridin-5-yl)pyridine-2-carboxamide]
[1]
  IC50: 0.0001 to 10 µM
[2]
  IC50: 0.0001 to 10 µM
[3]
  IC50: 0.0001 to 10 µM

## NC1CCN(S(=O)(=O)c2cccc(-c3cnc4[nH]c(-c5ccccc5)cc4c3)n2)CC1 [Compound P-0073, 1-[[6-(2-phenyl-1H-pyrrolo[2,3-b]pyridin-5-yl)-2-pyridyl]sulfonyl]piperidin-4-amine]
[1]
  IC50: 0.0001 to 10 µM
[2]
  IC50: 0.0001 to 10 µM
[3]
  IC50: 0.0001 to 10 µM

## O=S(=O)(NC1CCNC1)c1cccc(-c2cnc3[nH]c(-c4ccccc4)cc3c2)n1 (stereo not drawn) [Compound P-0072, 6-(2-phenyl-1H-pyrrolo[2,3-b]pyridin-5-yl)-N-pyrrolidin-3-yl-pyridine-2-sulfonamide]
[1]
  IC50: 0.0001 to 10 µM
[2]
  IC50: 0.0001 to 10 µM
[3]
  IC50: 0.0001 to 10 µM

## O=C(Nc1cccc(-c2cnc3[nH]c(-c4ccccc4)cc3c2)n1)C1CNC1 [Compound P-0084, N-[6-(2-phenyl-1H-pyrrolo[2,3-b]pyridin-5-yl)-2-pyridyl]azetidine-3-carboxamide]
[1]
  IC50: 0.0001 to 10 µM
[2]
  IC50: 0.0001 to 10 µM
[3]
  IC50: 0.0001 to 10 µM

## CNC1CCN(C(=O)c2cccc(-c3cnc4[nH]c(-c5cnn(CC(F)(F)F)c5)cc4c3)n2)C1 (stereo not drawn) [Compound P-0061, [3-(methylamino)pyrrolidin-1-yl]-[6-[2-[1-(2,2,2-trifluoroethyl)pyrazol-4-yl]-1H-pyrrolo[2,3-b]pyridin-5-yl]-2-pyridyl]methanone]
[1]
  IC50: 10 to 50 µM
[2]
  IC50: 0.0001 to 10 µM
[3]
  IC50: 0.0001 to 10 µM

## CC(C)(C#N)NC(=O)c1cccc(-c2cnc3[nH]c(-c4ccc(F)nc4)cc3c2)n1 [Compound P-0208, N-(1-cyano-1-methyl-ethyl)-6-[2-(6-fluoro-3-pyridyl)-1H-pyrrolo[2,3-b]pyridin-5-yl]pyridine-2-carboxamide]
[1]
  IC50: 50 to 100 µM
[2]
  IC50: 0.0001 to 10 µM
[3]
  IC50: 0.0001 to 10 µM
